Measurements: patent US11697669B2, “Hemi-citrate salts of GABA-A positive allosteric modulator and crystalline form thereof” (priority 2021, dated 2023)
Counter-ions that a name gives are not always drawn. Like-named read-outs stand apart in the source and are kept apart here.

How the values were obtained:
Format in all cases: physicochemical
[1] = Tablet stability: C17 epimer in sealed bottles stored at 40° C./75% RH; settings: tablet dosage form, sealed bottle, 1 or 2 months, versus mono-citrate salt
Experimental: FIG. 12 is a graph comparing the amount of the C17 epimer, a degradation product of Compound 1, over time for a tablet formulation containing Compound 1 hemi-citrate salt (Form I; left column in both “1 month” and “2 months”) or Compound 1 mono-citrate salt (Form A; right column in both “1 month” and “2 months”) in sealed bottles stored at 40° C./75% RH).

[2] = Tablet dissolution: percent release of Compound 1 from acidified tablet formulation
Experimental: FIG. 13 is a graph showing percent release of Compound 1 over time for an acidified tablet formulation containing Compound 1 hemi-citrate salt Form I. Tablets were used initially or maintained at 40° C./75% RH for 2 weeks, 1 month, or 2 months.
FIG. 14 is a graph showing percent release of Compound 1 over time for an acidified tablet formulation containing Compound 1 mono-citrate salt (Form A). Tablets were used initially or stored at 40° C./75% RH for 2 weeks, 1 month, or 2 months.

[3] = Gelation experiments in aqueous media; settings: for gelation during tablet dissolution experiments: certain conditions
Experimental: To confirm these findings, controlled experiments were conducted where the free base, mono-citrate, and hemi-citrate salts of Compound 1 were dissolved in aqueous media at concentrations between 0.5 mg/mL and 10 mg/mL. The dissolution experiments were performed in either 0.1 N HCl, water, or pH 7.4 buffer as aqueous media.

[4] = Heckel analysis on compaction simulator (yield pressure, strain rate sensitivity, crushing strength); settings: for yield pressure, fast press speed: punch speed 300 mm/s; for yield pressure, slow speed: punch speed 0.1 mm/s
Experimental: The aim of the Heckel test is to compress the material under controlled conditions to derive the yield pressure of the bulk material. A known weight of material is compressed within a 10 mm diameter die with flat faced punches moving at a set speed. The force on the punch is accurately measured at frequent intervals whilst the displacement of the punches is used to calculate the volume of the powder. The yield pressure is calculated at slow and fast punch speeds to assess the time-dependent component to deformation of the material.
A known weight of pure drug is compacted to theoretical zero porosity using 10 mm diameter flat faced punches. The Compaction Simulator was used under the following conditions:
During compression the location of the punch tips are accurately determined, and the force measured by load cells producing a record of the primary compression parameters. Temperature and humidity were monitored at intervals during the test.
The data were analyzed by the Compaction Analysis software program to generate values for yield pressure (Py) using the Heckel equation:
[formula] where D=the relative density of the compact; • P=Pressure applied; and • K=Gradient of the line in the linear region; [Reference: R. W. Heckel. Trans. Metall. Soc. AIME 221 (1961)1001-1008].
For some materials, the deformation characteristics change with rate of applied force. This can be estimated by calculating the Strain Rate Sensitivity. The yield pressure at high speed compression is compared to that at slow speed using the following equation:
[formula] [Reference: R. J. Roberts and R. C. Roe, Chem. Eng. Sci. 42(1987) p 903]. Results

[5] = Dynamic vapor sorption (DVS) at room temperature and 40° C.
Experimental: DVS was measured via a SMS (Surface Measurement System) DVS Intrinsic. Parameters for DVS data collection were as follows:
A second endotherm (having an onset at 121.5° C.) associated with melting of the dehydrated phase (ΔH: 15.20 J/g) was followed by a rapid decomposition as temperature continued to increase (FIG. 3). Because of the low onset of dehydration, the DVS was measured at both room temperature and at 40° C. to predict the stability of the crystalline phase at 40° C. […] A 1.5% weight loss was observed between 95% and 20% RH, and a 2.9% weight loss was observed between 20% and 0% RH, for a total loss of […] across the entire cycle. […] After measuring the hygroscopicity by DVS, an XRPD pattern was collected for comparison to the original material and found to correspond well to the pattern of the room temperature sample post-DVS temperature cycle (FIG. 6).

[6] = fast speed 300 mm/s, single runs, 21.7° C./38.9% RH

SMILES: COC[C@@]1(O)CC[C@@]2(C)[C@@H](CC[C@@H]3[C@@H]2CC[C@]2(C)[C@@H](C(=O)Cn4ccnc4)CC[C@@H]32)C1 [Compound 1 hemi-citrate salt, 3α-Hydroxy-3β-methoxymethyl-21-(1′-imidazolyl)-5α-pregnan-20-one]
- degradation product (C17-epimer) generated [1]: less degradation product
- release of Compound 1 over time ([2]; acidified formulation, initial and open dish at 40° C./75% RH for 2 weeks, 1 month or 2 months): greater than the release of Compound 1 from the same acidified formulation of the Compound 1 mono-citrate salt
- susceptibility to dissolution slow-down of the tablet ([2]; tablet, versus mono-citrate salt): less susceptible than the Compound 1 mono-citrate salt to dissolution slow-down
- gelation ([3]; any of the aqueous media (0.1 N HCl, water, pH 7.4 buffer), concentrations up to 10 mg/mL): did not gel
- gelation during tablet dissolution experiments [3]: not prone to gelation
- classification of compaction properties [4]: soft ductile compaction properties
- yield pressure, fast press speed [4]: 84 MPa

SMILES: COC[C@@]1(O)CC[C@@]2(C)[C@@H](CC[C@@H]3[C@@H]2CC[C@]2(C)[C@@H](C(=O)Cn4ccnc4)CC[C@@H]32)C1 [Compound 1 hemi-citrate salt Form I, 3α-Hydroxy-3β-methoxymethyl-21-(1′-imidazolyl)-5α-pregnan-20-one]
- Strain rate sensitivity (SRS) ([4]; fast versus slow speed yield pressure): 21.4%
- yield pressure, slow speed [4]: 69 MPa
- hygroscopicity [5]: slightly hygroscopic
- reversibility of water loss ([5]; 40° C.): fully reversible
- total loss ([5]; 40° C.): 5.4%
- water absorption from 20% to 80% RH ([5]; 40° C.): 1.8%
- water lost between 95% and 20% RH ([5]; 40° C.): 2.2%
- water lost from 20% to 0% RH ([5]; 40° C.): 3.2%
- reversibility of water loss ([5]; room temperature): fully reversible
- total loss across the entire cycle ([5]; room temperature): 4.3%
- water uptake between 20% and 80% RH ([5]; room temperature): 1.2%
- weight loss between 20% and 0% RH ([5]; room temperature): 2.9%
- weight loss between 95% and 20% RH ([5]; room temperature): 1.5%

SMILES: COC[C@@]1(O)CC[C@@]2(C)[C@@H](CC[C@@H]3[C@@H]2CC[C@]2(C)[C@@H](C(=O)Cn4ccnc4)CC[C@@H]32)C1.O=C(O)CC(O)(CC(=O)O)C(=O)O [Compound 1 mono-citrate salt Form A]
- Compact observations [4, 6]: Laminated
- Ejection Force [4, 6]: 0.740 kN
- yield pressure, slow speed [4]: 84 MPa
- Compact observations ([4]; slow speed 0.1 mm/s, single runs, 21.6° C./37.1% RH): Ok

SMILES: COC[C@@]1(O)CC[C@@]2(C)[C@@H](CC[C@@H]3[C@@H]2CC[C@]2(C)[C@@H](C(=O)Cn4ccnc4)CC[C@@H]32)C1 [Compound 1, 3α-Hydroxy-3β-methoxymethyl-21-(1′-imidazolyl)-5α-pregnan-20-one]
- gelation ([3]; 0.1 N HCl, concentrations as low as 1 mg/mL): rapidly gelled
- gelation ([3]; water or pH 7.4 buffer): did not gel

SMILES: COC[C@@]1(O)CC[C@@]2(C)[C@@H](CC[C@@H]3[C@@H]2CC[C@]2(C)[C@@H](C(=O)Cn4ccnc4)CC[C@@H]32)C1.O=C(O)CC(O)(CC(=O)O)C(=O)O [Compound 1 mono-citrate salt, 3α-Hydroxy-3β-methoxymethyl-21-(1′-imidazolyl)-5α-pregnan-20-one, reference compound]
- gelation ([3]; 0.1 N HCl, 5 mg/mL): rapidly gelled
- gelation during tablet dissolution experiments [3]: significant gelation
- gelation ([3]; water or pH 7.4 buffer): did not gel
- classification of compaction properties ([4]; from slow speed yield pressure): moderately brittle/ductile compaction properties
- yield pressure, fast press speed [4]: 109 MPa
